# “And” between values parts separate entries of the source, which are not always exact repeats. Identical values can stand only once.
# What was measured:
# [1] = biological target: T1, isolated human 20S proteasome, C-L activity (Homo sapiens, UniProt P28072+Q99436); assay: Proteasome inhibition assay in isolated human 20S proteasomes (Proteasome-Glo), C-L activity; format: biochemical
# T1 construct: human purified erythrocyte-derived 20S proteasome; purchased Enzo Life Sciences, Inc; host or cells: human erythrocytes (natural source)
# Excerpt: (§1) In this assay, the peptide substrates are bound to aminoluciferin (Suc-LLVY-AML for CT-L activity, Z-nLPnLD-AML for C-L, and Z-LRR-AML for T-L), leading the cleavage of these substrates by the proteasome to the release of free aminoluciferin, which is the substrate of the buffer-contained luciferase.
# (§2) To evaluate human purified erythrocyte-derived 20S proteasome inhibitory activity of the chosen compounds, the Proteasome-Glo™ 3-substrate system (Promega Corporation, Madison, WI, USA) was employed. The Proteasome-Glo™ reagents of the three proteolytic activities were prepared according to the manufacturer’s instructions, aliquoted, and stored at either −20 °C or 4 °C, avoiding freezing–thaw cycles. […] The purified 20S proteasome (Enzo Life Sciences, Inc., Farmingdale, NY, USA) was diluted in HEPES buffer 10 mM, pH 7.4, to a concentration experimentally adjusted to the signal/noise ratio obtained with each particular lot of Proteasome-Glo™ reagent, in order to have a good compromise between sensitivity and linear response. […] All assays were performed in white-walled multiwell plates (Thermo Scientific™ Sterilin™ White Microtiter™ plates, Thermo Fisher Scientific, Paisley, UK) in duplicates. The proteasome solution (25 μL) was added to each well first, then the diluted solutions of the assayed compounds (25 μL), and lastly the Proteasome-Glo™ Reagent (50 μL). […] Reagents were added to the plate well on ice, and the plate was then transferred to the plate luminometer (SpectraMax®, Molecular Devices, LLC, San Jose, CA, USA) set at 37 °C, gently mixed for 30 s, and the measurements were immediately started in kinetic mode, with data collected every 5 min for at least 60 min.
# (§3) All compounds were dissolved in DMSO at a concentration of 10 mM and stored at −20 °C or 4 °C. Solutions of the test compounds were prepared at their adequate dilutions in 10 mM HEPES buffer pH 7.6 before each experiment.
# (§4) To calculate the proteasome activity over time, the value of mean relative luminescence units (RLU) of blank wells at each respective time point was subtracted, and then the ratio between mean RLU of the sample and mean RLU of the positive control wells was calculated for each time point and expressed as percentage.
# [2] = biological target: T2, 20S proteasome in HT-29 cell lysates, C-L activity (Homo sapiens, UniProt P28072); assay: Proteasome inhibition assay in cell lysates, HT-29, C-L
# T2 sequence (P28072 35-239 limits assumed): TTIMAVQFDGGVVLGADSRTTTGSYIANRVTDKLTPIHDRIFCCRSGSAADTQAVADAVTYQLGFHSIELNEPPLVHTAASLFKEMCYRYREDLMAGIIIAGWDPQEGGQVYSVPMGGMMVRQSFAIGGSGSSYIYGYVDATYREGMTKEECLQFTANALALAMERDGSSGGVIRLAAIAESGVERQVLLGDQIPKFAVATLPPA
# T2 sequence (Q99436 44-277 partner): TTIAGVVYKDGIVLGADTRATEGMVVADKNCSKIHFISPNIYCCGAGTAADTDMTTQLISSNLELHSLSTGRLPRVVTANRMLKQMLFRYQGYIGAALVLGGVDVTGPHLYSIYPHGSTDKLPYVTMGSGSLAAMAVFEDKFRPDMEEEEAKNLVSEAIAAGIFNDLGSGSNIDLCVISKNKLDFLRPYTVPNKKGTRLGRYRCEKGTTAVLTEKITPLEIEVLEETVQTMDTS
# Method: (§5) Cells were obtained from several cultured cell lines: Jurkat, K562, HT-29, and HCT116. Pellets with 20 × 10^6 cells were prepared and washed with cold sterile phosphate buffered saline (PBS), 1×, pH 7.4 (Gibco, Thermo Fisher Scientific, Paisley, UK). […] Cells were resuspended in buffer containing 50 mM TRIS-HCl pH 7.4 (Nzytech, Lisboa, Portugal), 5 mM MgCl2 (≥98% purity, Merck, Hamburg, Germany), 1 mM DTT (Merck, Hamburg, Germany), 2 mM ATP (≥98% purity, Enzo Life Sciences Inc., Farmingdale, NY, USA), and 250 mM saccharose (Merck, Hamburg, Germany). Glass beads (Merck, Hamburg, Germany) equivalent to the volume of the cell suspension were added, and the mixture was vortexed for 2 min at 4 °C. Beads and cell debris were removed using 5 min centrifugation at 1000× g and 4 °C, followed by 20 min of centrifugation at 10,000× g at 4 °C. Cell lysates containing proteasomes were resuspended in “activity buffer” [50 mM TRIS-HCl (pH 7.4), 5 mM MgCl2, 1 mM DTT, 2 mM ATP (≥98% purity, Enzo Life Sciences Inc., Farmingdale, NY, USA), and 500 µM EDTA (≥98% purity, Merck, Hamburg, Germany)]. Protein concentration was determined using the Pierce™ BCA protocol (Thermo Fisher Scientific, Rockford, IL, USA). […] DMSO was added in an equal volume as used for the untreated compounds as a way to assess/control its influence in the assay. Untreated cells were used as control. In each well of a 96-well plate, 25 µL of lysate were seeded in duplicate with 25 µL of the compound to test; in the control, 25 µL of activity buffer were added to the 25 µL of lysate. A blank (50 µL of activity buffer) was added to the wells in quadruplicate. Cell lysates, pre-treated or not with different concentrations of the test compounds, were incubated for 30 min at 37 °C. […] Stock solutions (10 mM) of each substrate were prepared in DMSO, diluted in activity buffer, and 50 µL were added to all wells (final concentration of each substrate = 100 µM), followed by an incubation at 37 °C for 60 min. Samples fluorescence was measured at an excitation wavelength of 360 nm and emission of 465 nm; the fluorescence measures were performed using the GloMax-Multi + Detection System (Promega Corp., Madison, WI, USA). Activity was evaluated in fluorescence units, after being converted to percentage of proteasome inhibition and, whenever possible, expressed as IC50 by plotting the inhibition data of each compound at different concentrations against the log of the concentration of the inhibitor, using the GraphPad Prism software version 7. At least eight different concentrations of the test compounds were used.
# [3] = biological target: T3, 20S proteasome in HCT116 cell lysates, C-L activity (Homo sapiens, UniProt P28072); assay: Proteasome inhibition assay in cell lysates, HCT116, C-L
# T3 sequence (P28072 35-239 limits assumed): T2 sequence (P28072 35-239 limits assumed)
# T3 sequence (Q99436 44-277 partner): T2 sequence (Q99436 44-277 partner)
# Method: as §5
# [4] = biological target: T4, 20S proteasome in Jurkat cell lysates, C-L activity (Homo sapiens, UniProt P28072); assay: Proteasome inhibition assay in cell lysates, Jurkat, C-L
# T4 sequence (P28072 35-239 limits assumed): T2 sequence (P28072 35-239 limits assumed)
# T4 sequence (Q99436 44-277 partner): T2 sequence (Q99436 44-277 partner)
# Method: as §5
# [5] = biological target: T5, 20S proteasome in HCT116 cell lysates, CT-L activity (Homo sapiens, UniProt P28074); assay: Proteasome inhibition assay in cell lysates, HCT116, CT-L
# T5 sequence (P28074 60-263): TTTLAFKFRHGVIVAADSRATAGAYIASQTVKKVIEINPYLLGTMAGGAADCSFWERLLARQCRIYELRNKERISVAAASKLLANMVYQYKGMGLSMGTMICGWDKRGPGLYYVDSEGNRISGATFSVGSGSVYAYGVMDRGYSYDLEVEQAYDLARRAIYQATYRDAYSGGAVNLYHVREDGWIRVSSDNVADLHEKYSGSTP
# T5 sequence (P20618 29-241 partner): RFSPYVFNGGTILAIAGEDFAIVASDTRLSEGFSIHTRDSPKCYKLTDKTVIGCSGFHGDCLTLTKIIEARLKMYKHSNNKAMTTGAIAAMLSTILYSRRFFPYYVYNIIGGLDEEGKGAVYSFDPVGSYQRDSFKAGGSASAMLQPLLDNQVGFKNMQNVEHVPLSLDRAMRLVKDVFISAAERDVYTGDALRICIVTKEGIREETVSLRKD
# Method: as §5
# [6] = biological target: T6, isolated human 20S proteasome, CT-L activity (Homo sapiens, UniProt P20618+P28074); assay: Proteasome inhibition assay in isolated human 20S proteasomes (Proteasome-Glo), CT-L activity; format: biochemical
# T6 construct: human purified erythrocyte-derived 20S proteasome; purchased Enzo Life Sciences, Inc; host or cells: human erythrocytes (natural source)
# Excerpt: as §1, §2, §3, §4
# [7] = biological target: T7, 20S proteasome in HT-29 cell lysates, CT-L activity (Homo sapiens, UniProt P28074); assay: Proteasome inhibition assay in cell lysates, HT-29, CT-L
# T7 sequence (P28074 60-263): T5 sequence (P28074 60-263)
# T7 sequence (P20618 29-241 partner): T5 sequence (P20618 29-241 partner)
# Method: as §5
# [8] = at 100 µM, Table 1 legend: bortezomib positive control 10 µM
# [9] = at 100 µM, Table 2 legend: bortezomib 10 µM
smiles,measurement,setting,value
Cc1ccc2ccccc2c1CSc1ncnc2c1ncn2C1OC(CO)C(O)C1O (centres unmarked) [Compound 1],inhibition at 10 µM,"[1]; at 10 µM, read-out: percentage of proteasome inhibition, C-L, isolated 20S proteasome",0%
same,"percentage of proteasome inhibition, C-L, isolated human 20S proteasome",[1]; [8],54.47% and 55%
same,IC50,[2],79.4 µM
same,"percentage of proteasome inhibition, C-L, cell lysates HT-29",[2]; [9],76%
same,inhibition at 10 µM,"[2]; read-out: percentage of proteasome inhibition, C-L, cell lysates HT-29, at 10 µM",0%
same,inhibition at 100 µM,"[2]; read-out: percentage of proteasome inhibition, C-L, cell lysates HT-29, at 100 µM, Table 2 legend: bortezomib 10 µM",76%
same,IC50,[3],75.6 µM
same,"percentage of proteasome inhibition, C-L, cell lysates HCT116","[3]; at 100 µM, Table 2 legend: bortezomib 10 µM, NI = No inhibition",71%
same,inhibition at 100 µM,"[3]; read-out: percentage of proteasome inhibition, C-L, cell lysates HCT116, at 100 µM, Table 2 legend: bortezomib 10 µM, NI = No inhibition",71.2%
same,inhibition at 10 µM,"[3]; read-out: percentage of proteasome inhibition, C-L, cell lysates HCT-116, at 10 µM",0%
same,"percentage of proteasome inhibition, C-L, cell lysates Jurkat",[4]; [9],19%
same,inhibition at 10 µM,"[4]; read-out: percentage of proteasome inhibition, C-L, cell lysates Jurkat, at 10 µM",2.27%
same,inhibition at 100 µM,"[4]; read-out: percentage of proteasome inhibition, C-L, cell lysates Jurkat, at 100 µM, Table 2 legend: bortezomib 10 µM",19.4%
same,IC50,[5],76.4 µM
same,"percentage of proteasome inhibition, CT-L, cell lysates HCT116",[5]; [9],90%
same,inhibition at 100 µM,"[5]; read-out: percentage of proteasome inhibition, CT-L, cell lysates HCT116, at 100 µM, Table 2 legend: bortezomib 10 µM",90.2%
same,inhibition at 10 µM,"[5]; read-out: percentage of proteasome inhibition, CT-L, cell lysates HCT-116, at 10 µM",0%
same,inhibition at 10 µM,"[6]; at 10 µM, read-out: percentage of proteasome inhibition, CT-L, isolated 20S proteasome",0%
same,"percentage of proteasome inhibition, CT-L, isolated human 20S proteasome",[6]; [8],37.72% and 38%
same,IC50,[7],90.8 µM
same,"percentage of proteasome inhibition, CT-L, cell lysates HT-29",[7]; [9],62%
same,inhibition at 10 µM,"[7]; read-out: percentage of proteasome inhibition, CT-L, cell lysates HT-29, at 10 µM",0%
same,inhibition at 100 µM,"[7]; read-out: percentage of proteasome inhibition, CT-L, cell lysates HT-29, at 100 µM, Table 2 legend: bortezomib 10 µM",62.1%
